Measured values as given in patent publication US20140171448A1, “USE OF NICOTINIC ACETYLCHOLINE RECEPTOR ALPHA 7 ACTIVATORS” (NOVARTIS AG, priority 2011, published 2014).

How the values were obtained:
[1] = Oral bioavailability and brain penetration in mice; type: in vivo; conditions: 30 μmol/kg p.o.
Method: Compounds were orally (30 μmol/kg) administered. Male mice (30-35g, OF1/ICstrain) were sacrificed at indicated time points after oral administration. Trunk-blood was collected in EDTA-containing tubes and the brain was removed and immediately frozen on dry ice.
To 100 μl plasma 10 μl internal standard (1.0 pmol of a compound with solubility and ionization properties similar to test compounds) was added and extracted three times with 500 μl dichloromethane. The combined extracts were then dried under a stream of nitrogen and re-dissolved in 100 μl acetonitrile/water (70% acetonitrile). Brains were weighed and homogenized in water (1:5 w/v). Two 100 μl aliquots of each homogenate+10 μl of internal standard (same standard as used for the plasma samples) were extracted three times with 500 μl dichloromethane and further processed as the plasma samples. Samples were separated on Beckmann high-performance liquid chromatography equipment system with an autosampler (Gilson 233XL).
The limit of detection (LOD), defined as the lowest concentration of the extracted standard sample with a signal to noise ratio of ˜3.

[2] = system: parkinsonian primates; test: Antidyskinetic effect in parkinsonian primates (MPTP, levodopa-induced dyskinesia); type: in vivo, cynomolgus monkeys (Macaca fascicularis); conditions: with levodopa
Method: Female ovariectomized cynomolgus monkeys (Macaca fascicularis) are used in the assessment. The animals can be rendered parkinsonian by continuous infusion of 1-methyl-4-phenyl-1,2,3,6-tetrahydropyridine (MPTP) until they develop a stable parkinsonian syndrome. After recuperation, animals are treated daily with levodopa until clear and reproducible dyskinesias are developed.
Monkeys are observed through a one-way screen window in their home cage. They are observed and scored repeatedly at baseline and after a standard s.c. dose of levodopa. Locomotor activity is assessed and followed with an electronic monitoring system. Antiparkinsonian responses are evaluated by measuring the locomotor activity and a Parkinson disability scale (see Hadj Tahar A et al, Clin Neuropharmacol 2000; 23:195-202; and Samadi P et al, Neuropharmacology 2003; 45:954-963). Dyskinesias are closely monitored and scored according to a dyskinesia rating scale (also described in Hadj Tahar A et al; and Samadi P et al) every 15 minutes until the end of the effect. The doses of levodopa are chosen to induce motor activation and reproducible dyskinesia but no excessive agitation.
Monkeys are observed for at least two hours following an oral administration of vehicle. On a subsequent day, the dose of levodopa selected is tested once. The animals are observed (with measures of parkinsonian and dyskinetic scores) for the entire duration of the levodopa effect and are also monitored for locomotor activity. This provides vehicle control values as well as levodopa antiparkinsonian and dyskinesia response data for comparison with combinations of a α7-nAChR agonist/positive allosteric modulator and levodopa. The monkeys are then tested with a α7-nAChR agonist/positive allosteric modulator in combination with a fixed dose of levodopa. A suspension for oral administration of the α7-nAChR agonist/positive allosteric modulator is administered before levodopa. After each dose, the animals are observed (with measures of parkinsonian and dyskinetic scores) for the entire duration of effect and monitored for locomotor activity or any change in behavior (e.g. circling, excitement, lethargy and sleepiness).
Using this protocol, compound A-1 at a dose of 20 mg/kg was tested. Results based on five monkeys (levodopa/benserazide doses: 22.5/50 mg; 65/50 mg; 30/50 mg; 35/50 mg; and 25/50 mg) are shown in FIGS. 1-4.

[3] = molecular target: T1, human neuronal nAChR α4β2 (Homo sapiens, UniProt P17787+P43681); test: α4β2-nAChR functional assay in human epithelial cell line; type: cell-based
T1 construct: expressed in transfected cells; host or cells: human epithelial cell line (named a human embryonic kidney cell line)
Method: To assess the activity of the compound of the invention on the human neuronal nAChR α4β2, a similar functional assay is carried out using a human epithelial cell line stably expressing the human α4β2 subtype (Michelmore et al., Naunyn-Schmiedeberg's Arch.

T1 sequence (P43681 29-627 limits assumed): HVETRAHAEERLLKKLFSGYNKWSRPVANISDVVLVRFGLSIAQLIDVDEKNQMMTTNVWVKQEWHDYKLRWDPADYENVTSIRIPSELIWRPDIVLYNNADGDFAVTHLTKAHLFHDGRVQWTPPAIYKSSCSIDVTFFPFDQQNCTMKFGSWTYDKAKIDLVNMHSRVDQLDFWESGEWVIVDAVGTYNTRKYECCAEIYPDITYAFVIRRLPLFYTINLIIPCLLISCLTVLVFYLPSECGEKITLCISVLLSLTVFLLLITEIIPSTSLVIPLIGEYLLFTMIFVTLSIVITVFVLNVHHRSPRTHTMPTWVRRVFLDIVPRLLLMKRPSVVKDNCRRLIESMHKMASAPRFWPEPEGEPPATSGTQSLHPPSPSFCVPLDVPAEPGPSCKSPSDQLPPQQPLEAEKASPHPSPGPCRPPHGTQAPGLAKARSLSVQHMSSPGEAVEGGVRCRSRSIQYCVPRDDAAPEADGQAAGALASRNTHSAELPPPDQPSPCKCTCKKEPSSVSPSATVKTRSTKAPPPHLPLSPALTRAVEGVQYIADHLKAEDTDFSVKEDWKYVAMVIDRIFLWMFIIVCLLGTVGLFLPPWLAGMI
T1 sequence (P17787 26-502): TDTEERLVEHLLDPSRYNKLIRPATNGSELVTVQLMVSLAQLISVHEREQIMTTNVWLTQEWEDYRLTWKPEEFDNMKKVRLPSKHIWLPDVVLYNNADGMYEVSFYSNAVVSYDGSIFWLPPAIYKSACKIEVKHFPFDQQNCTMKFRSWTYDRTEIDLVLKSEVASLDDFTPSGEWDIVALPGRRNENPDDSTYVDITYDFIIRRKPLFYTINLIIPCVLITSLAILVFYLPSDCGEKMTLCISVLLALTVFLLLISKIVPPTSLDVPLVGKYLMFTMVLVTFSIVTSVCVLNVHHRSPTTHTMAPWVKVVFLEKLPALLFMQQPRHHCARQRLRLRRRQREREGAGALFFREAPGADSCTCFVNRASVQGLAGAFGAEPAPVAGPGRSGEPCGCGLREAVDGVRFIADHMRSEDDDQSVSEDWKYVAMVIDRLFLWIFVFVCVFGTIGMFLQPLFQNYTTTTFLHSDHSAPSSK

## C[C@H](OC(=O)N[C@@H]1CN2CCC1CC2)c1ccccc1F [A-1, (S)-(1-aza-bicyclo[2.2.2]oct-3-yl)-carbamic acid (S)-1-(2-fluoro-phenyl)-ethyl ester]
[1]; 4 hour
  Brain (pmoles/g ± SD): 101.6 ± 39.6 pmol/g
[1]; male, OF1/IC, mouse, plasma, po, 0.5 hour, read-out: Plasma (pmoles/ml ± SD)
  concentration at 0.5 h: 635 ± 261 pmol/mL
[1]; male, OF1/IC, mouse, plasma, po, 1 hour, read-out: Plasma (pmoles/ml ± SD)
  concentration at 1 h: 685 ± 340 pmol/mL
[1]; male, OF1/IC, mouse, plasma, po, 2 hour, read-out: Plasma (pmoles/ml ± SD)
  concentration at 2 h: 168 ± 91.3 pmol/mL
[1]; male, OF1/IC, mouse, plasma, po, 4 hour, read-out: Plasma (pmoles/ml ± SD)
  concentration at 4 h: 85 ± 54.3 pmol/mL
[1]; male, OF1/IC, mouse, plasma, po, 6 hour, read-out: Plasma (pmoles/ml ± SD)
  concentration at 6 h: 29.5 ± 13.8 pmol/mL
[1]; male, OF1/IC, mouse, plasma, po, 24 hour, read-out: Plasma (pmoles/ml ± SD)
  concentration at 24 h: 3.8 ± 0.6 pmol/mL
[2]
  effect on antiparkinsonian activity of levodopa: does not lower the antiparkinsonian activity of levodopa
  effect on duration of the antiparkinsonian activity of levodopa: significantly increases the duration of the antiparkinsonian activity seen for levodopa administration
  effect on levodopa-induced dyskinesia: significantly reduces levodopa-induced dyskinesia
  effect on onset of action of levodopa: does not delay the onset of action of levodopa
[3]
  EC50: > 100 µM
